# Values quoted from earlier work in patent US20220151952A1 (priority 2019, published 2022).
substance,measurement,setting,value
cannabidiol [CBD],solubility in organic solvents,"organic solvents, such as oil",soluble
same,solubility in water,water,insoluble
